Two molecules from patent US10765114B2, “4-amino-6-(pyridyl and 2-substitutedphenyl)-picolinates and 6-amino-2-(pyridyl and 2-substitutedphenyl)-pyrimidine-4-carboxylates and their use as herbicides” (Dow AgroSciences LLC, priority 2013, dated 2020) can be followed below.

Where only a bound is given, the exact number is not on record here.

What all share (assay): Post-Emergent Test III (Wheat and Barley)
In one assay the test system is ALOMY (blackgrass). In kind it is in vivo, Alopecurus myosuroides. As to conditions: for pest or weed control at 35 g/ha / pest or weed control at 70 g/ha: Alopecurus myosuroides, post-emergence, 504 h, postemergence, read-out: Visual Growth Reduction (%) 21 Days After Application, ALOMY; for pest or weed control at 35 g/ha: 35 g ai/ha; for pest or weed control at 70 g/ha: 70 g ai/ha; for GR50, ALOMY: effective dose for growth reduction of 50 percent; for GR50, ALOMY / GR80, ALOMY: probit analysis; for GR80, ALOMY: effective dose for growth reduction of 80 percent. How it is done:
(§1) Seeds of the desired test plant species were planted in Sun Gro MetroMix® 306 planting mixture, which typically has a pH of 6.0 to 6.8 and an organic matter content of about 30 percent, in plastic pots with a surface area of 103.2 square centimeters (cm^2). When required to ensure good germination and healthy plants, a fungicide treatment and/or other chemical or physical treatment was applied. The plants were grown for 7-36 days in a greenhouse with an approximate 14 h photoperiod which was maintained at about 18° C. during the day and 17° C. during the night. Nutrients and water were added on a regular basis and supplemental lighting was provided with overhead metal halide 1000-Watt lamps as necessary. The plants were employed for testing when they reached the second or third true leaf stage.
(§2) A weighed amount, determined by the highest rate to be tested, of each test compound was placed in a 25 mL glass vial and was dissolved in 4 mL of a 97:3 v/v mixture of acetone and DMSO to obtain concentrated stock solutions. […] The concentrated stock solutions obtained were diluted with 20 mL of an aqueous mixture containing acetone, water, isopropyl alcohol, DMSO, Agri-Dex crop oil concentrate, and X-77 surfactant in a 48:39:10:1.5:1.5:0.02 v/v ratio to obtain spray solutions containing the highest application rates. Additional application rates were obtained by serial dilution of 12 mL of the high rate solution into a solution containing 2 mL of 97:3 v/v mixture of acetone and DMSO and 10 mL of an aqueous mixture containing acetone, water, isopropyl alcohol, DMSO, Agri-Dex crop oil concentrate, and X-77 surfactant in a 48:39:10:1.5:1.5:0.02 v/v ratio to obtain ½×, ¼×, ⅛× and 1/16× rates of the high rate. Compound requirements are based upon a 12 mL application volume at a rate of 187 liters per hectare (L/ha). Formulated compounds were applied to the plant material with an overhead Mandel track sprayer equipped with 8002E nozzles calibrated to deliver 187 L/ha over an application area of 0.503 square meters at a spray height of 18 inches (43 cm) above the average plant canopy height. Control plants were sprayed in the same manner with the solvent blank.
(§3) The treated plants and control plants were placed in a greenhouse as described above and watered by subirrigation to prevent wash-off of the test compounds. After 21 dAYS, the condition of the test plants as compared with that of the untreated plants was determined visually and scored on a scale of 0 to 100 percent where 0 corresponds to no injury and 100 corresponds to complete kill and presented as indicated in Table A.
(§4) By applying the well-accepted probit analysis as described by J. Berkson in Journal of the American Statistical Society, 48, 565 (1953) and by D. Finney in “Probit Analysis” Cambridge University Press (1952), herbicidal injury of a specific compound at various rates can be used to calculate GR10, GR20, GR50, GR80 and GR90 values, which are defined as growth reduction factors that correspond to the effective dose of herbicide required to provide plant growth reduction (GR) of 10 percent, 20 percent, 50 percent, 80 percent and 90 percent, respectively. Probit analysis was applied to data collected from multiple dose rates of individual compounds utilizing the procedures explained in the following examples. The analysis of those dose rates is captured in the following tables.

The subject of a further assay is APESV (windgrass). In kind it is in vivo, Apera spica-venti. As to conditions: for pest or weed control at 35 g/ha / pest or weed control at 70 g/ha: Apera spica-venti, post-emergence, 504 h, postemergence, read-out: Visual Growth Reduction (%) 21 Days After Application, APESV; for pest or weed control at 35 g/ha: 35 g ai/ha; for pest or weed control at 70 g/ha: 70 g ai/ha; for GR50, APESV: effective dose for growth reduction of 50 percent; for GR50, APESV / GR80, APESV: probit analysis; for GR80, APESV: effective dose for growth reduction of 80 percent. As to the method: as §1, §2, §3, §4

For another assay, the system named is KCHSC (kochia). Format: in vivo, Kochia scoparia. As to conditions: for pest or weed control at 35 g/ha / pest or weed control at 70 g/ha: Bassia scoparia, post-emergence, 504 h, postemergence, read-out: Visual Growth Reduction (%) 21 Days After Application, KCHSC; for pest or weed control at 35 g/ha: 35 g ai/ha; for pest or weed control at 70 g/ha: 70 g ai/ha. How it is done:
as §1, §2, §3, §4

In the next assay the test system is SETVI (green foxtail). In kind it is in vivo, Setaria viridis. As to conditions: for pest or weed control at 35 g/ha / pest or weed control at 70 g/ha: Setaria viridis, post-emergence, 504 h, postemergence, read-out: Visual Growth Reduction (%) 21 Days After Application, SETVI; for pest or weed control at 35 g/ha: 35 g ai/ha; for pest or weed control at 70 g/ha: 70 g ai/ha; for GR50, SETVI: effective dose for growth reduction of 50 percent; for GR50, SETVI / GR80, SETVI: probit analysis; for GR80, SETVI: effective dose for growth reduction of 80 percent. How it is done: as §1, §2, §3, §4

The subject of a further assay is HORSS. Format: in vivo. Particulars: for pest or weed control at 35 g/ha / pest or weed control at 70 g/ha: Hordeum vulgare, post-emergence, 504 h, postemergence, read-out: Visual Growth Reduction (%) 21 Days After Application, HORSS; for pest or weed control at 35 g/ha: 35 g ai/ha; for pest or weed control at 70 g/ha: 70 g ai/ha; for GR20, HORSS: effective dose for growth reduction of 20 percent, probit analysis. As to the method:
as §1, §2, §3, §4

A further assay concerns LOLSS. Format: in vivo. As to conditions: for pest or weed control at 35 g/ha / pest or weed control at 70 g/ha: post-emergence, 504 h, postemergence, read-out: Visual Growth Reduction (%) 21 Days After Application, LOLSS; for pest or weed control at 35 g/ha: 35 g ai/ha; for pest or weed control at 70 g/ha: 70 g ai/ha. How it is done: as §1, §2, §3, §4
The next assay has as its system TRZSS. Format: in vivo. As to conditions: for pest or weed control at 35 g/ha / pest or weed control at 70 g/ha: Triticum aestivum, post-emergence, 504 h, postemergence, read-out: Visual Growth Reduction (%) 21 Days After Application, TRZSS; for pest or weed control at 35 g/ha: 35 g ai/ha; for pest or weed control at 70 g/ha: 70 g ai/ha; for GR20, TRZSS: effective dose for growth reduction of 20 percent, probit analysis. How it is done: as §1, §2, §3, §4

[1] abbreviates: effective dose for growth reduction of 50 percent, probit analysis.
The mark [2] stands for this setting: effective dose for growth reduction of 80 percent, probit analysis.

Take `Cc1c(-c2ccc(C(F)(F)F)nc2)nc(C(=O)O)c(Cl)c1N` [Compound 51, 4-amino-5-chloro-3-methyl-6′-(trifluoromethyl)-[2,3′-bipyridine]-6-carboxylic acid]: in the assay with ALOMY (blackgrass), the pest or weed control at 35 g/ha lay within 0 to 29%; the pest or weed control at 70 g/ha was 0 to 29%; the “GR50, ALOMY” value is given as over 140 g ai/ha; the “GR80, ALOMY” value is listed as over 140 g ai/ha. Besides, in the assay on APESV (windgrass), the pest or weed control at 35 g/ha lay within 0 to 29%; the pest or weed control at 70 g/ha fell in the range of 60 to 74%; the “GR50, APESV” value turned out to be 63 g ai/ha; the “GR80, APESV” value is 139 g ai/ha. In addition, in the assay on KCHSC (kochia), the pest or weed control at 35 g/ha is 0 to 29% and the pest or weed control at 70 g/ha lay in the range of 0 to 29%. In the assay with SETVI (green foxtail), the pest or weed control at 35 g/ha fell in the range of 75 to 84%; the pest or weed control at 70 g/ha lay within 85 to 94%; the “GR50, SETVI” value was 26 g ai/ha; the “GR80, SETVI” value is recorded as 47 g ai/ha. Also, in the assay on HORSS, the pest or weed control at 35 g/ha lay in the range of 60 to 74%; the pest or weed control at 70 g/ha fell in the range of 75 to 84%; the “GR20, HORSS” value was 1 g ai/ha. In the assay on LOLSS, the pest or weed control at 35 g/ha lay within 0 to 29% and the pest or weed control at 70 g/ha lay in the range of 0 to 29%. In the assay with TRZSS, the pest or weed control at 35 g/ha lay in the range of 60 to 74%; the pest or weed control at 70 g/ha lay in the range of 75 to 84%; the “GR20, TRZSS” value was determined as 1 g ai/ha.
`COC(=O)c1nc(-c2ccc(C(F)(F)F)nc2)c(F)c(N)c1Cl` [Compound 59, methyl 4-amino-5-chloro-3-fluoro-6′-(trifluoromethyl)-[2,3′-bipyridine]-6-carboxylate]: in the assay on ALOMY (blackgrass), the pest or weed control at 35 g/ha is 30 to 44%; the pest or weed control at 70 g/ha is 60 to 74%; the “GR50, ALOMY” value is recorded as 48 g ai/ha; the “GR80, ALOMY” value is 80 g ai/ha. Besides, in the assay on APESV (windgrass), the pest or weed control at 35 g/ha lay in the range of 30 to 44%; the pest or weed control at 70 g/ha was in the range of 75 to 84%; the “GR50, APESV” value is 42 g ai/ha; the “GR80, APESV” value is recorded as 72 g ai/ha. Moreover, in the assay with KCHSC (kochia), the pest or weed control at 35 g/ha is 60 to 74% and the pest or weed control at 70 g/ha was 75 to 84%. For the same molecule, the “GR50, KCHSC” value with KCHSC (kochia) (setting [1]) turned out to be 27 g ai/ha. In addition, in the assay on KCHSC (kochia) (setting [2]), the “GR80, KCHSC” value is reported as 57 g ai/ha. In the assay on SETVI (green foxtail), the pest or weed control at 35 g/ha is 45 to 59%; the pest or weed control at 70 g/ha was in the range of 85 to 94%; the “GR50, SETVI” value is 34 g ai/ha; the “GR80, SETVI” value is 61 g ai/ha. In the assay with HORSS, the pest or weed control at 35 g/ha was in the range of 75 to 84%; the pest or weed control at 70 g/ha lay within 75 to 84%; the “GR20, HORSS” value is listed as 4 g ai/ha. Further, the “GR50, LOLSS” value in the assay with LOLSS (setting [1]) is reported as over 140 g ai/ha. Also, the “GR80, LOLSS” value in the assay with LOLSS (setting [2]) is reported as over 140 g ai/ha. In addition, in the assay on LOLSS, the pest or weed control at 35 g/ha fell in the range of 0 to 29% and the pest or weed control at 70 g/ha lay in the range of 30 to 44%. In the assay on TRZSS, the pest or weed control at 35 g/ha lay in the range of 60 to 74%; the pest or weed control at 70 g/ha was 75 to 84%; the “GR20, TRZSS” value is 4 g ai/ha.
